Data published in patent US20260042753A1 (Merck Patent GmbH, priority 2019, published 2026).
Like-named read-outs stand apart in the source and are kept apart here.

Experiments:
[1] = molecular target: mutant cKIT (560-576 and V654A) in GIST430/654 cell line (Homo sapiens (Human), UniProt P10721, DEL560-576/V654A); assay: Cellular testing of cKIT mutant inhibitors: phospho-Y307-cKIT Luminex assay in GIST430/654 cells; type: cell-based; settings: read-out: GIST 430/654 IC50
Outline: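 GIST430/654 cells carrying constitutively active cKIT (Δ560-576/V654A) were grown with 100 nM imatinib, then treated with serially diluted compound for 45 min. Lysates were captured on anti-total-cKIT Luminex beads overnight at 4 °C and probed for phospho-Y307-cKIT. IC50 was fitted from percent of 0.3% DMSO control.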

c-Kit(V654A) = c-Kit(V654A) (Homo sapiens, UniProt P10721, V654A); assay: c-Kit(V654A) assay; type: biochemical
Outline: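 Radiometric filter-binding read-out: after 3% phosphoric acid stop, peptide-incorporated 33P on filtermat scintillation-counted. Enzyme: human c-Kit V654A, residues 544–end, N-terminal GST fusion.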

[2] = Table 1, cKIT autophosphorylation, compounds 45 min
[3] = Table 2, corresponding triazole derivatives
[4] = Table 2, isoxazole derivatives presently described

Chain of mutant cKIT (560-576 and V654A) in GIST430/654 cell line (P10721 other isoform, or with tags, fused parts or gaps V654A/del 1-25/del 560-576 limits assumed): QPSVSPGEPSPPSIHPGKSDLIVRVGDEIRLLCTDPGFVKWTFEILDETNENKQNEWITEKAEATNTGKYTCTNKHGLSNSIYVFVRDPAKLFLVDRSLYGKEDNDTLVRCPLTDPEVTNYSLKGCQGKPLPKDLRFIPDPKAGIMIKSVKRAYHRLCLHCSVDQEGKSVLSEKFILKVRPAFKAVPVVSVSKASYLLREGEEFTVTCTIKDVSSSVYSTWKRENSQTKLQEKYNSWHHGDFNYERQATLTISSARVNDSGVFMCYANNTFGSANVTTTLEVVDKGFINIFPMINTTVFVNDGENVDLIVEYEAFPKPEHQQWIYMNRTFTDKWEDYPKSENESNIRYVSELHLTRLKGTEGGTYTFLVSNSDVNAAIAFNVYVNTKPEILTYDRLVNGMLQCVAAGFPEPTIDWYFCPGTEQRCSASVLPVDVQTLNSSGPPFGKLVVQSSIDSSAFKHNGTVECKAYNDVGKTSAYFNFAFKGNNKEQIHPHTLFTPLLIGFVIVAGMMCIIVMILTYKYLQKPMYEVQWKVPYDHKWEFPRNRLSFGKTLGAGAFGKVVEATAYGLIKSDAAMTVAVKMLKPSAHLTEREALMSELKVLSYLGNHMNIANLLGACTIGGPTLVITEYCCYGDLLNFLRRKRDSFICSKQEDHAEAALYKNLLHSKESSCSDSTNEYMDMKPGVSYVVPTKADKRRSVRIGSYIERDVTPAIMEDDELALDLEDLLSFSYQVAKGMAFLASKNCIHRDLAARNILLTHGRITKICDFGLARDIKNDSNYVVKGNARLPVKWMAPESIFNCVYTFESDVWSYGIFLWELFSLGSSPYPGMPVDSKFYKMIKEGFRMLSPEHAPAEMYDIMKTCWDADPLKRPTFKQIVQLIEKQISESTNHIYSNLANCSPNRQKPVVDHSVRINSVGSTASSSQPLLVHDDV

Molecule `COCCOc1cc2[nH]nc(-c3cc(-c4ccc(C(=O)N5CCC[C@H]5CO)cc4)no3)c2cc1F` [A51, [(2S)-1-(4-{5-[5-fluoro-6-(2-methoxyethoxy)-1H-indazol-3-yl]-1,2-oxazol-3-yl}benzoyl)pyrrolidin-2-yl]methanol] has an IC50 [1, 2] of 57 nM and an IC50 (c-Kit(V654A); Table 1, 200 μM ATP) of 0.88 nM.

`COCCOc1cc2[nH]nc(-c3cc(-c4ccc(C(=O)N5CC(F)C5)cc4)no3)c2cc1F` [A26, 5-fluoro-3-{3-[4-(3-fluoroazetidine-1-carbonyl)phenyl]-1,2-oxazol-5-yl}-6-(2-methoxyethoxy)-1H-indazole] gave an IC50 [1, 2] of 45 nM and an IC50 (c-Kit(V654A); Table 1, 200 μM ATP) of 2.1 nM.

`COCCOc1cc2[nH]nc(-c3cc(-c4ccc(C(=O)N5C[C@H]6CNC[C@H]6C5)cc4)no3)c2cc1F` [A223, 3-(3-{4-[(cis)-octahydropyrrolo[3,4-c]pyrrole-2-carbonyl]phenyl}-1,2-oxazol-5-yl)-5-fluoro-6-(2-methoxyethoxy)-1H-indazole] was tested, and the IC50 [1, 2] was 380 nM and the IC50 (c-Kit(V654A); Table 1, 200 μM ATP) was 1.1 nM.

`COCCOc1cc2[nH]nc(-c3cc(-c4ccc(C(=O)N5CC(O)(c6cccnc6)C5)cc4)no3)c2cc1F` [A221, 1-(4-{5-[5-fluoro-6-(2-methoxyethoxy)-1H-indazol-3-yl]-1,2-oxazol-3-yl}benzoyl)-3-(pyridin-3-yl)azetidin-3-ol] was tested, and the IC50 [1, 2] was 120 nM and the IC50 (c-Kit(V654A); Table 1, 200 μM ATP) was 0.54 nM.

`COCCOc1cc2[nH]nc(-c3cc(-c4ccc(C(=O)N5CCC6(CC5)CN(C)C6)cc4)no3)c2cc1F` [A176, 7-(4-{5-[5-fluoro-6-(2-methoxyethoxy)-1H-indazol-3-yl]-1,2-oxazol-3-yl}benzoyl)-2-methyl-2,7-diazaspiro[3.5]nonane] gave an IC50 [1, 2] of 320 nM and an IC50 (c-Kit(V654A); Table 1, 200 μM ATP) of 2.6 nM.

Molecule `COCCOc1cc2[nH]nc(-c3cc(-c4ccc(C(=O)N5CCC[C@@H]5CO)nc4)no3)c2cc1F` [A62, (5-{5-[5-fluoro-6-(2-methoxy-ethoxy)-1H-indazol-3-yl]-isoxazol-3-yl}-pyridin-2-yl)-((R)-2-hydroxymethyl-pyrrolidin-1-yl)-methanone] has an IC50 [1, 2] of 450 nM and an IC50 (c-Kit(V654A); Table 1, 200 μM ATP) of 5.6 nM.

`COCCOc1cc2[nH]nc(-c3cc(-c4ccc(C(=O)N5CCC(N6CCOCC6)C5)cc4)no3)c2cc1F` (stereo not shown) [A153, 5-fluoro-6-(2-methoxyethoxy)-3-(3-{f4-[3-(morpholin-4-yl)pyrrolidine-1l-carbonyl]phenyl}-1,2-oxazol-5-yl)-1H-indazole] gave an IC50 [1, 2] of 46 nM and an IC50 (c-Kit(V654A); Table 1, 200 μM ATP) of 0.83 nM.

In the case of `COCCOc1cc2[nH]nc(-c3cn(-c4ccc(C(=O)N5CCOC[C@@H]5C)cc4)nn3)c2cc1F` [reference compound], the IC50 [1, 3] is reported as 230 nM and the IC50 (c-Kit(V654A); [3]) is reported as 6.9 nM.

`COCCOc1cc2[nH]nc(-c3cc(-c4ccc(C(=O)N5CC[C@H]5C(C)(C)O)nc4)no3)c2cc1F` [A118, (5-{5-[5-fluoro-6-(2-methoxy-ethoxy)-1H-indazol-3-yl]-isoxazol-3-yl}-pyridin-2-yl)-[(S)-2-(1-hydroxy-1-methyl-ethyl)-azetidin-1-yl]-methanone] gave an IC50 [1, 2] of 640 nM and an IC50 (c-Kit(V654A); Table 1, 200 μM ATP) of 7.1 nM.

`COCCOc1cc2[nH]nc(-c3cc(-c4ccc(C(=O)N5CC(N6CCCCC6)C5)cc4)no3)c2cc1F` [A177, 5-fluoro-6-(2-methoxyethoxy)-3-(3-{4-[3-(piperidin-1-yl)azetidine-1-carbonyl]phenyl}-1,2-oxazol-5-yl)-1H-indazole] gave an IC50 [1, 2] of 65 nM and an IC50 (c-Kit(V654A); Table 1, 200 μM ATP) of 1 nM.

Molecule `COCCOc1cc2[nH]nc(-c3cc(-c4ccc(-n5cncn5)cc4)no3)c2cc1Cl` [A14, 5-chloro-6-(2-methoxyethoxy)-3-{3-[4-(1H-1,2,4-triazol-1-yl)phenyl]-1,2-oxazol-5-yl}-1H-indazole] has an IC50 [1, 2] of 510 nM and an IC50 (c-Kit(V654A); Table 1, 200 μM ATP) of 8.8 nM.

With `COCCOc1cc2[nH]nc(-c3cc(-c4ccc(C(=O)N5CCOC[C@@H]5CS(C)(=O)=O)cc4)no3)c2cc1F` [A184, (4-{5-[5-fluoro-6-(2-methoxy-ethoxy)-1H-indazol-3-yl]-isoxazol-3-yl}-phenyl)-((R)-3-methanesulfonylmethyl-morpholin-4-yl)-methanone] the IC50 [1, 2] was 120 nM and the IC50 (c-Kit(V654A); Table 1, 200 μM ATP) was 1.1 nM.

In the case of `COc1cc2[nH]nc(-c3cc(-c4ccc(C(=O)N5CCC[C@H]5CS(C)(=O)=O)cc4)no3)c2cc1F` [A117, 5-fluoro-3-(3-{4-[(2S)-2-(methanesulfonylmethyl)pyrrolidine-1-carbonyl]phenyl}-1,2-oxazol-5-yl)-6-methoxy-1H-indazole], the IC50 [1, 2] is reported as 100 nM and the IC50 (c-Kit(V654A); Table 1, 200 μM ATP) is reported as 3.6 nM.

`COc1cc2[nH]nc(-c3cc(-c4ccc(C(=O)N5CC(N6CCOCC6)C5)cc4)no3)c2cc1F` [A61, 5-fluoro-6-methoxy-3-(3-{4-[3-(morpholin-4-yl)azetidine-1-carbonyl]phenyl}-1,2-oxazol-5-yl)-1H-indazole] was tested, and the IC50 [1, 2] was 110 nM and the IC50 (c-Kit(V654A); Table 1, 200 μM ATP) was 5.5 nM.

`COCCOc1cc2[nH]nc(-c3cc(-c4ccc(C(=O)N5CC(S(C)(=O)=O)C5)cc4)no3)c2cc1F` [A29, 5-fluoro-3-{3-[4-(3-methanesulfonylazetidine-1-carbonyl)phenyl]-1,2-oxazol-5-yl}-6-(2-methoxyethoxy)-1H-indazole] was tested, and the IC50 [1, 2] was 390 nM and the IC50 (c-Kit(V654A); Table 1, 200 μM ATP) was 0.95 nM.

For `COCCOc1cc2[nH]nc(-c3cc(-c4ccc(C(=O)N5CC(N6CC(F)C6)C5)cc4)no3)c2cc1F` [A101, 5-fluoro-3-[3-(4-{3-fluoro-[1,3′-biazetidine]-1′-carbonyl}phenyl)-1,2-oxazol-5-yl]-6-(2-methoxyethoxy)-1H-indazole], the IC50 [1, 2] was 160 nM and the IC50 (c-Kit(V654A); Table 1, 200 μM ATP) was 0.94 nM.

Work on `COCCOc1cc2[nH]nc(-c3cc(-c4ccc(C(=O)N5CCN(CC6CC6)CC5)cc4)no3)c2cc1F` [A179, 3-(3-{4-[4-(cyclopropylmethyl)piperazine-1-carbonyl]phenyl}-1,2-oxazol-5-yl)-5-fluoro-6-(2-methoxyethoxy)-1H-indazole] yielded an IC50 [1, 2] of 85 nM and an IC50 (c-Kit(V654A); Table 1, 200 μM ATP) of 0.59 nM.

`COCCOc1cc2[nH]nc(-c3cc(-c4ccc(-n5ncccc5=O)cc4)no3)c2cc1F` [A142, 2-(4-{5-[5-fluoro-6-(2-methoxyethoxy)-1H-indazol-3-yl]-1,2-oxazol-3-yl}phenyl)-2,3-dihydropyridazin-3-one] gave an IC50 [1, 2] of 75 nM and an IC50 (c-Kit(V654A); Table 1, 200 μM ATP) of 6 nM.

For `COCCOc1cc2[nH]nc(-c3cc(-c4ccc(C(=O)N5CCOC[C@H]5C)cc4)no3)c2cc1F` [compound 114], the IC50 [1, 4] was 56 nM and the IC50 (c-Kit(V654A); [4]) was 0.91 nM.

`COCCOc1cc2[nH]nc(-c3cc(-c4ccc(C(=O)N(C)C)nc4)no3)c2cc1F` [A99, 5-{5-[5-fluoro-6-(2-methoxy-ethoxy)-1H-indazol-3-yl]-isoxazol-3-yl}-pyridine-2-carboxylic acid dimethylamide] showed an IC50 [1, 2] of 670 nM and an IC50 (c-Kit(V654A); Table 1, 200 μM ATP) of 6.9 nM.

`COCCOc1cc2[nH]nc(-c3cc(-c4ccc(N5CCCN(C)CC5)cc4)no3)c2cc1F` [A123, 5-fluoro-6-(2-methoxyethoxy)-3-{3-[4-(4-methyl-1,4-diazepan-1-yl)phenyl]-1,2-oxazol-5-yl}-1H-indazole] was tested, and the IC50 [1, 2] was 38 nM and the IC50 (c-Kit(V654A); Table 1, 200 μM ATP) was 0.39 nM.

Work on `COCCOc1cc2[nH]nc(-c3cc(-c4ccc(C(=O)N5CC(n6cccn6)C5)cc4)no3)c2cc1F` [A75, 5-fluoro-6-(2-methoxyethoxy)-3-(3-{4-[3-(1H-pyrazol-1-yl)azetidine-1-carbonyl]phenyl}-1,2-oxazol-5-yl)-1H-indazole] yielded an IC50 [1, 2] of 59 nM and an IC50 (c-Kit(V654A); Table 1, 200 μM ATP) of 1.4 nM.

`COCCOc1cc2[nH]nc(-c3cc(-c4ccc(C(=O)N5C[C@@H]6C[C@H]5CO6)cc4)no3)c2cc1F` [A162, 5-fluoro-6-(2-methoxyethoxy)-3-(3-{4-[(1S,4S)-2-oxa-5-azabicyclo[2.2.1]heptane-5-carbonyl]phenyl}-1,2-oxazol-5-yl)-1H-indazole] showed an IC50 [1, 2] of 44 nM and an IC50 (c-Kit(V654A); Table 1, 200 μM ATP) of 0.65 nM.

`COCCOc1cc2[nH]nc(-c3cc(-c4ccc(C(=O)N5CCN(C(CO)CO)CC5)cc4)no3)c2cc1F` [A228, 2-[4-(4-{5-[5-fluoro-6-(2-methoxyethoxy)-1H-indazol-3-yl]-1,2-oxazol-3-yl}benzoyl)piperazin-1-yl]propane-1,3-diol] showed an IC50 [1, 2] of 470 nM and an IC50 (c-Kit(V654A); Table 1, 200 μM ATP) of 570 nM.

Molecule `COCCOc1cc2[nH]nc(-c3cc(-c4ccc(C(=O)N5CC6CC(C5)O6)cc4)no3)c2cc1F` [A161, 5-fluoro-6-(2-methoxyethoxy)-3-[3-(4-{6-oxa-3-azabicyclo[3.1.1]heptane-3-carbonyl}phenyl)-1,2-oxazol-5-yl]-1H-indazole] has an IC50 [1, 2] of 40 nM and an IC50 (c-Kit(V654A); Table 1, 200 μM ATP) of 0.45 nM.

`COCCOc1cc2[nH]nc(-c3cc(-c4ccc(C(=O)N5CCN(C)CC5CO)cc4)no3)c2cc1F` (stereo not shown) [A54, [1-(4-{5-[5-fluoro-6-(2-methoxyethoxy)-1H-indazol-3-yl]-1,2-oxazol-3-yl}benzoyl)-4-methylpiperazin-2-yl]methanol] gave an IC50 [1, 2] of 130 nM and an IC50 (c-Kit(V654A); Table 1, 200 μM ATP) of 0.73 nM.

In the case of `COCCOc1cc2[nH]nc(-c3cc(-c4ccc(S(=O)(=O)N5CCOCC5)cc4)no3)c2cc1F` [A227, 5-fluoro-6-(2-methoxyethoxy)-3-{3-[4-(morpholine-4-sulfonyl)phenyl]-1,2-oxazol-5-yl}-1H-indazole], the IC50 [1, 2] is reported as 170 nM and the IC50 (c-Kit(V654A); Table 1, 200 μM ATP) is reported as 3 nM.

Work on `COCCOc1cc2[nH]nc(-c3cc(-c4ccc(C(=O)N5CC(c6ccccn6)C5)cc4)no3)c2cc1F` [A149, 5-fluoro-6-(2-methoxyethoxy)-3-(3-{4-[3-(pyridin-2-yl)azetidine-1-carbonyl]phenyl}-1,2-oxazol-5-yl)-1H-indazole] yielded an IC50 [1, 2] of 46 nM and an IC50 (c-Kit(V654A); Table 1, 200 μM ATP) of 0.69 nM.

`COC(CO)COc1cc2[nH]nc(-c3cc(-c4ccc(C(=O)N(C)C)cc4)no3)c2cc1F` (stereo not shown) [A49, 4-{5-[5-fluoro-6-(3-hydroxy-2-methoxypropoxy)-1H-indazol-3-yl]-1,2-oxazol-3-yl}-N,N-dimethylbenzamide] was tested, and the IC50 [1, 2] was 500 nM and the IC50 (c-Kit(V654A); Table 1, 200 μM ATP) was 1.9 nM.
